From ChEMBL document CHEMBL1127517 (J Med Chem, 1994)

Experiments:
Rattus norvegicus [1] = assay: Distribution of radio activity in tissues of unfasted male rats was measured at 120 min of time in heart after intravenous administration; format: ADME, organism-based; conditions: in vivo, 2 h
Rattus norvegicus [2] = assay: Distribution of radio activity in tissues of unfasted male rats was measured as regional uptake at 2 min of time in striatum after intravenous administration; format: ADME, organism-based; conditions: in vivo
Rattus norvegicus [3] = assay: Distribution of radio activity in tissues of unfasted male rats was measured as regional uptake at 2 min of time in hippocampus after intravenous administration; format: ADME, organism-based; conditions: in vivo
Rattus norvegicus [4] = assay: Distribution of radio activity in tissues of unfasted male rats was measured as regional uptake at 60 min of time in ST/CB after intravenous administration; format: ADME, organism-based; conditions: in vivo, 1 h
Rattus norvegicus [5] = assay: Distribution of radio activity in tissues of unfasted male rats was measured at 60 min of time in skin after intravenous administration; format: ADME, organism-based; conditions: in vivo, 1 h
Rattus norvegicus [6] = assay: Distribution of radio activity in tissues of unfasted male rats was measured at 2 min of time in liver after intravenous administration; format: ADME, organism-based; conditions: in vivo
Rattus norvegicus [7] = assay: Distribution of radio activity in tissues of unfasted male rats was measured at 60 min of time in brain after intravenous administration; format: ADME, organism-based; conditions: in vivo, 1 h
Rattus norvegicus [8] = assay: Distribution of radio activity in tissues of unfasted male rats was measured at 120 min of time in kidney after intravenous administration; format: ADME, organism-based; conditions: in vivo, 2 h
[9] = target: Sodium-dependent dopamine transporter (Rattus norvegicus, UniProt P23977); assay: Inhibitory constant towards reuptake of [125I]-13 from dopamine transporter in rat striatal membranes; format: cell membranes, Membrane
Sodium-dependent dopamine transporter, sequence (P23977 whole entry): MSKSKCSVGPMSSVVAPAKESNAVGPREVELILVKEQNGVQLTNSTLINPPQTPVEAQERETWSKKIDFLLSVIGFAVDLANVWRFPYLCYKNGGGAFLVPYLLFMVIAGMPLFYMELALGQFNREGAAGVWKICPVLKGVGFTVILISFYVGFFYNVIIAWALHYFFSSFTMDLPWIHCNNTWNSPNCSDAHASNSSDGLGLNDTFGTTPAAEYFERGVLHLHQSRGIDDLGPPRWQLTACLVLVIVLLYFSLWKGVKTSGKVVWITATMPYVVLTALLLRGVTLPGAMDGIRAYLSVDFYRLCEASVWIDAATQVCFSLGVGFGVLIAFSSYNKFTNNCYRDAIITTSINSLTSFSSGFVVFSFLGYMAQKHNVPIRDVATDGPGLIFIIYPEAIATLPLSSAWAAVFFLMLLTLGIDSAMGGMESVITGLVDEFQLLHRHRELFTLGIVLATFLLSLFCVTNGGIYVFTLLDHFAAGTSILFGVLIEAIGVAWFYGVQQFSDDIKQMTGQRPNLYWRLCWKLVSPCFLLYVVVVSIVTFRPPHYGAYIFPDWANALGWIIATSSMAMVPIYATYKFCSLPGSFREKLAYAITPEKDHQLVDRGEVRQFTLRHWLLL

Rattus norvegicus [10] = assay: Distribution of radio activity in tissues of unfasted male rats was measured at 120 min of time in brain after intravenous administration; format: ADME, organism-based; conditions: in vivo, 2 h
Rattus norvegicus [11] = assay: Distribution of radio activity in tissues of unfasted male rats was measured at 60 min of time in spleen after intravenous administration; format: ADME, organism-based; conditions: in vivo, 1 h
Rattus norvegicus [12] = assay: Distribution of radio activity in tissues of unfasted male rats was measured at 60 min of time in thyroid after intravenous administration; format: ADME, organism-based, Thyroid gland; conditions: in vivo, 1 h
Rattus norvegicus [13] = assay: Distribution of radio activity in tissues of unfasted male rats was measured at 60 min of time in blood after intravenous administration; format: ADME, organism-based; conditions: in vivo, 1 h
Rattus norvegicus [14] = assay: Distribution of radio activity in tissues of unfasted male rats was measured at 2 min of time in muscle after intravenous administration; format: ADME, organism-based, Muscle tissue; conditions: in vivo
Rattus norvegicus [15] = assay: Distribution of radio activity in tissues of unfasted male rats was measured at 30 min of time in liver after intravenous administration; format: ADME, organism-based; conditions: in vivo, 0.5 h
Rattus norvegicus [16] = assay: Distribution of radio activity in tissues of unfasted male rats was measured as at 2 min of time in skin after intravenous administration; format: ADME, organism-based; conditions: in vivo
Rattus norvegicus [17] = assay: Distribution of radio activity in tissues of unfasted male rats was measured as regional uptake at 60 min of time in cerebellum after intravenous administration; format: ADME, organism-based; conditions: in vivo, 1 h
Rattus norvegicus [18] = assay: Distribution of radio activity in tissues of unfasted male rats was measured at 2 min of time in kidney after intravenous administration; format: ADME, organism-based; conditions: in vivo
Rattus norvegicus [19] = assay: Distribution of radio activity in tissues of unfasted male rats was measured at 60 min of time in liver after intravenous administration; format: ADME, organism-based; conditions: in vivo, 1 h
Rattus norvegicus [20] = assay: Distribution of radio activity in tissues of unfasted male rats was measured as regional uptake at 120 min of time in cortex after intravenous administration; format: ADME, organism-based; conditions: in vivo, 2 h
Rattus norvegicus [21] = assay: Distribution of radio activity in tissues of unfasted male rats was measured as regional uptake at 2 min of time in cortex after intravenous administration; format: ADME, organism-based; conditions: in vivo
Rattus norvegicus [22] = assay: Distribution of radio activity in tissues of unfasted male rats was measured as regional uptake at 120 min of time in hippocampus after intravenous administration; format: ADME, organism-based; conditions: in vivo, 2 h
Rattus norvegicus [23] = assay: Distribution of radio activity in tissues of unfasted male rats was measured as regional uptake at 60 min of time in cortex after intravenous administration; format: ADME, organism-based; conditions: in vivo, 1 h
Rattus norvegicus [24] = assay: Distribution of radio activity in tissues of unfasted male rats was measured at 30 min of time in kidney after intravenous administration; format: ADME, organism-based; conditions: in vivo, 0.5 h
Rattus norvegicus [25] = assay: Distribution of radio activity in tissues of unfasted male rats was measured as regional uptake at 2 min of time in ST/CB after intravenous administration; format: ADME, organism-based; conditions: in vivo
Rattus norvegicus [26] = assay: Distribution of radio activity in tissues of unfasted male rats was measured at 30 min of time in skin after intravenous administration; format: ADME, organism-based; conditions: in vivo, 0.5 h
Rattus norvegicus [27] = assay: Distribution of radio activity in tissues of unfasted male rats was measured as regional uptake at 60 min of time in hippocampus after intravenous administration; format: ADME, organism-based; conditions: in vivo, 1 h
Rattus norvegicus [28] = assay: Distribution of radio activity in tissues of unfasted male rats was measured at 30 min of time in brain after intravenous administration; format: ADME, organism-based; conditions: in vivo, 0.5 h
Rattus norvegicus [29] = assay: Distribution of radio activity in tissues of unfasted male rats was measured at 30 min of time in thyroid after intravenous administration; format: ADME, organism-based, Thyroid gland; conditions: in vivo, 0.5 h
Rattus norvegicus [30] = assay: Distribution of radio activity in tissues of unfasted male rats was measured as regional uptake at 120 min of time in cerebellum after intravenous administration; format: ADME, organism-based; conditions: in vivo, 2 h
Rattus norvegicus [31] = assay: Distribution of radio activity in tissues of unfasted male rats was measured at 120 min of time in blood after intravenous administration; format: ADME, organism-based; conditions: in vivo, 2 h

COC(=O)C1C(c2ccc(Cl)cc2)CC2CCC1N2C/C=C\I (stereo unspecified)
Injected dose/organ (Rattus norvegicus [1]): 0.11%
Dose/g (Rattus norvegicus [2]): 0.92%
Dose/g (Rattus norvegicus [3]): 0.69%
Dose/g (Rattus norvegicus [4]): 2.7%
Injected dose/organ (Rattus norvegicus [5]): 24.81%
Injected dose/organ (Rattus norvegicus [6]): 12.13%
Injected dose/organ (Rattus norvegicus [7]): 0.07%
Injected dose/organ (Rattus norvegicus [8]): 0.46%
Ki [9]: 6.3 nM
Injected dose/organ (Rattus norvegicus [10]): 0.04%
Injected dose/organ (Rattus norvegicus [11]): 0.11%
Injected dose/organ (Rattus norvegicus [12]): 0.94%
Injected dose/organ (Rattus norvegicus [13]): 5.77%
Injected dose/organ (Rattus norvegicus [14]): 29.15%
Injected dose/organ (Rattus norvegicus [15]): 2.78%
Injected dose/organ (Rattus norvegicus [16]): 7.27%
Dose/g (Rattus norvegicus [17]): 0.04%
Injected dose/organ (Rattus norvegicus [18]): 2.65%
Injected dose/organ (Rattus norvegicus [19]): 1.6%
Dose/g (Rattus norvegicus [20]): 0.03%
Dose/g (Rattus norvegicus [21]): 0.91%
Dose/g (Rattus norvegicus [22]): 0.03%
Dose/g (Rattus norvegicus [23]): 0.04%
Injected dose/organ (Rattus norvegicus [24]): 0.78%
Dose/g (Rattus norvegicus [25]): 1.12%
Injected dose/organ (Rattus norvegicus [26]): 26.73%
Dose/g (Rattus norvegicus [27]): 0.04%
Injected dose/organ (Rattus norvegicus [28]): 0.21%
Injected dose/organ (Rattus norvegicus [29]): 1.02%
Dose/g (Rattus norvegicus [30]): 0.02%
Injected dose/organ (Rattus norvegicus [31]): 5.16%
